Laboratory results published in article PMC7958448, “Bepridil is potent against SARS-CoV-2 in vitro” (Proceedings of the National Academy of Sciences of the …, 2021).
Like-named read-outs stand apart in the source and are kept apart here.

Experiments:
[1] = system: SARS-CoV-2 in Vero E6 cells; format: cell-based
[2] = system: SARS-CoV-2 in A549/ACE2 cells; format: cell-based; settings: 6 repeats
[3] = system: SARS-CoV-2 in Vero E6 cells; assay: microbe, parasite or virus in culture; format: cell-based; settings: Severe acute respiratory syndrome coronavirus 2, Vero C1008, 72 h; read-out: EC50 in inhibiting SARS-CoV-2
[4] = system: SARS-CoV-2 in A549/ACE2 cells; assay: microbe, parasite or virus in culture; format: cell-based; settings: Severe acute respiratory syndrome coronavirus 2, A549-ACE2, 96 h; read-out: EC50 in inhibiting SARS-CoV-2
[5] = system: Ebola virus; settings: mouse, in vivo, 12 mg/kg; cited from earlier work
[6] = target: T1, SARS-CoV-2 main protease (Mpro) (Severe acute respiratory syndrome coronavirus 2, UniProt P0DTD1); settings: 1 mM medicine, relative to control without small molecule
[7] = target: T1, SARS-CoV-2 main protease (Mpro); assay: biochemical
[8] = system: SARS-CoV-2 entry into mammalian cell hosts; settings: cell-based study; read-out: EC50 in inhibiting the SARS-CoV-2 entry; cited from earlier work

CC(C)COCC(CN(Cc1ccccc1)c1ccccc1)N1CCCC1 (centres unmarked) [Bepridil]
SARS-CoV-2 induced CPE [1]: No CPE | SARS-CoV-2 induced CPE ([1]; Vero E6, bepridil 6.25 µM, 6 repeats): No CPE | SARS-CoV-2 induced CPE ([1]; Vero E6, bepridil 25 µM, 6 repeats): No CPE | SARS-CoV-2 induced CPE ([2]; A549/ACE2, bepridil 6.25 µM): No CPE | SARS-CoV-2 induced CPE ([2]; A549/ACE2, bepridil 12.5 µM): No CPE | SARS-CoV-2 induced CPE ([2]; A549/ACE2, bepridil 25 µM): No CPE | SARS-CoV-2 induced CPE ([2]; A549/ACE2, bepridil 50 µM): No CPE | EC50 [3]: 860 nM | EC50 [4]: 460 nM | protection from Ebola virus infections [5]: 100%

CCN1CC(CCN2CCOCC2)C(c2ccccc2)(c2ccccc2)C1=O (centres unmarked) [Doxapram]
activation of Mpro [6]: > 15%

Cc1cccc(C)c1OCC(=O)N[C@@H](Cc1ccccc1)[C@@H](O)C[C@H](Cc1ccccc1)NC(=O)[C@H](C(C)C)N1CCCNC1=O [Lopinavir]
IC50 ([7]; 50 nM Mpro, 10 µM Sub3, 20% DMSO, mean ± SE, triplicate): 486000 ± 2000 nM | Hill slope ([7]; four-parameter variable slope fit of the IC50 curve): 29.9 ± 2.4

Cc1c(O)cccc1C(=O)N[C@@H](CSc1ccccc1)[C@H](O)CN1C[C@H]2CCCC[C@H]2C[C@H]1C(=O)NC(C)(C)C [Nelfinavir]
EC50 [8]: 1000 nM

CN1CCN(CC(=O)N2c3ccccc3C(=O)Nc3cccnc32)CC1 [Pirenzepine]
activation of Mpro [6]: > 15%

CCOc1ccccc1OC(c1ccccc1)C1CNCCO1 (centres unmarked) [Reboxetine]
activation of Mpro [6]: > 15%

CCOC(=O)/C=C/[C@H](C[C@@H]1CCNC1=O)NC(=O)[C@@H](CC(=O)[C@@H](NC(=O)c1cc(C)on1)C(C)C)Cc1ccc(F)cc1 [Rupintrivir]
Hill slope [7]: 1.4 ± 0.2
